Test results as given in US20230009323A1, “COMPOUNDS AND METHODS FOR THE TREATMENT OF CRYPTOSPORIDIOSIS” (The Broad Institute, Inc., priority 2019, published 2023).

Experiments:
HEK293T cytotoxicity = type: cell-based; conditions: human, HEK293T cells
C. parvum (Iowa isolate) = experiment: EdU incorporation (DNA synthesis) assay of intracellular development in HCT-8 cells; type: cell-based, Cryptosporidium parvum; conditions: 2×EC90; FIG. 6A legend says EC90
Experimental: DNA synthesis was assayed during intracellular development of C. parvum (Iowa isolate) within HCT-8 cells by measuring incorporation of the thymidine analogue 5-ethynyl-2′-deoxyuridine (EdU) using epifluorescence microscopy as described in Jumani, R. S. et al. Nat Commun 10, 1862, doi:10.1038/s41467-019-09880-w (2019), hereby incorporated by reference in its entirety. HCT-8 cells were grown to >90% confluence in 96-well plates coated with 50 μg mL^−1 fibronectin (BD Pharmingen, catalog #354008), and then infected using the method described above with ˜5.5×10^4 C. parvum Iowa isolate oocysts per well. Compound 11 was added at 2×EC90 3 hours after infection, followed by incubation for 6 hours and then addition of […] EdU. After incubation for two more hours, the monolayers were washed and fixed with 4% formaldehyde in saline. Cells were then permeabilized, and stained with FITC-Vicia villosa lectin, Hoechst 33258, and for incorporation of EdU using the Click-iT assay kit (Thermo Fisher Scientific). Images were acquired by focusing on the parasite focal plane on top of the host cell monolayer using a 40× objective (0.7 NA), and parasitophorous vacuoles and EdU positive vacuoles were quantified using NIH ImageJ software.

[1] = test system: C. parvum mutant transgenic PheRS (mut482V); experiment: microbe, parasite or virus in culture; type: cell-based, Cryptosporidium parvum
Experimental: (§1) The in vitro drug susceptibility assay using transgenic parasites expressing Nluc was performed as described in Vinyak et al. Briefly, host intestinal epithelial adenocarcinoma (HCT-8) cells grown in 96-well plates were infected with purified transgenic Nluc-expressing oocysts (1,000 oocysts per well) and incubated with different concentrations of Compound 11 for 48 hours. Culture supernatant was discarded from the wells after 48 hours, and 200 μl of NanoGlo lysis buffer containing 1:50 of NanoGlo substrate (Promega) was added to the wells. Lysates were transferred to white 96-well plates and luminescence was measured on a Glomax luminescence reader (Promega). EC50 values were calculated in GraphPad Prism software v7.
(§2) Oocysts from the mutant (mut482V) and wild type (wtL482) transgenic lines were purified as well as the parent strain (Bunchgrass) used to generate the transgenics. Sporozoites were excised from these oocysts and used to infect 96 well format HCT-8 cultures to perform in vitro drug susceptibility assays. Cultures were incubated for 48 hours in the presence of varying concentrations of Compound 11 and parasite growth was measured by establishing whole well luciferase activity to calculate EC50 values for each strain.

[2] = test system: transgenic C. parvum (L482+V482 mixed or wt L482); experiment: IFN-γ knockout mice infected with transgenic C. parvum, fecal luminescence; type: in vivo, C57BL/6 IFN-γ knockout mice; conditions: 10 mg/kg for five days (days 4-8 post-infection); day 7
Description: All mouse studies described in this section were approved by the Institutional Animal Care and Use Committee of the University of Georgia and University of Pennsylvania. Cryptosporidium parvum IOWA-II oocysts were purchased from Bunch Grass Farms, Deary, Id., USA. Oocysts were excysted and electroporated with Cas9/guide plasmid and repair DNA template using Lonza Nucleofector 4D device and previously optimized protocols described in Vinayak, S. et al. Nature 523, 477-480, doi:10.1038/nature14651 (2015) and Pawlowic, et al. Curr Protoc Microbiol 46, 20B 22 21-20B 22 32, doi:10.1002/cpmc.33 (2017), each hereby incorporated by reference in their entirety. C57BL/6 IFN-γ knockout mice (Jackson Laboratory) aged 4-6 weeks (n=5) were infected with transfected sporozoites suspended in PBS using surgery described previously or an oral gavage procedure. The oral gavage procedure involved buffering of the acidic stomach with 8% sodium bicarbonate before delivery of sporozoites.
Fecal samples were collected from cages and luminescence measurements were performed as described in Manjunatha, U. H. et al. Nature 546, 376-380, doi:10.1038/nature22337 (2017) and Vinayak, S. et al. Nature 523, 477-480, doi:10.1038/nature14651 (2015), each hereby incorporated by reference in their entirety. […] During passaging, mice were monitored for weight loss, fur ruffling, hunched posture, and inactivity. […]

HepG2 cytotoxicity = type: cell-based; conditions: human, HepG2 cells
C. hominis (TU 502) = experiment: C. hominis TU502 growth in HCT-8 cells; type: cell-based; conditions: Cryptosporidium hominis
Experimental: (§3) Studies using farm C. parvum isolates and the C. hominis TU502 isolate were performed by Calibr at Scripps Research (La Jolla, Calif.) in 1,536-well plates using a slightly modified immunofluorescence assay as described in Love, M. S. et al. PLoS neglected tropical diseases 11, e0005373, doi:10.1371/journal.pntd.0005373 (2017), hereby incorporated by reference in its entirety. HCT-8 cell culture medium was replaced with RPMI 1640 medium supplemented with 2% heat-inactivated horse serum, 100 U·mL^−1 penicillin, and […] 24 h prior to infection with the indicated isolate. The C. parvum Iowa isolate was included as a reference in all experiments. Imaging was performed using a Cellnsight CX5 High Content screening platform (Thermo Scientific) with a 10× objective and acquisition of one microscopic field per well. Images were processed using HCS Studio Scan software, and the selected-object count (HCT-8 cells) and spot count (parasitophorous vacuoles) were analyzed in Genedata Screener (version 13.0; Standard). Dose-response curves and EC50 values were calculated using the Smart Fit function of Genedata Analyzer.

[3] = test system: C. parvum WT transgenic PheRS (wtL482); experiment: In vitro drug susceptibility in HCT-8 cells, luminescence, wild type transgenic; type: cell-based; conditions: Cryptosporidium parvum, HCT-8, 48 h, read-out: EC50, wild type transgenic
Experimental: as §1, §2

[4] = test system: C. parvum (Iowa) Sterling; experiment: C. parvum (Iowa) Sterling growth in HCT-8 cells; type: cell-based; conditions: Cryptosporidium parvum
Experimental: as §3

COc1ccc(NC(=O)N2CCCCN3[C@H](CN(C)C)[C@H](c4ccc(C#Cc5ccccc5)cc4)[C@@H]3C2)cc1 [Compound 11, (8R,9S,10S)-10-((dimethylamino)methyl)-N-(4-methoxyphenyl)-9-(4-(phenylethynyl)phenyl)-1,6-diazabicyclo[6.2.0]decane-6-carboxamide]
CC50 (HEK293T cytotoxicity): 5 µM
intracellular parasite development (EdU incorporation) (C. parvum (Iowa isolate)): strongly inhibited intracellular parasite development
fold shift in EC50, mutant transgenic vs wild type transgenic [1]: 23 fold
EC50 ([1]; Cryptosporidium parvum, HCT-8, 48 h, read-out: EC50, mutant transgenic): 1060 nM
fecal luciferase activity (parasite shedding) [2]: decrease in luciferase activity
CC50 (HepG2 cytotoxicity): 5 µM
EC50 (C. hominis (TU 502)): 10 nM
EC50 [3]: 47 nM
EC50 [4]: 8 nM
